Assay results from patent US20080139534A1, “Bisbenzamidines and bisbenzamidoximes for the treatment of human African trypanosomiasis” (XAVIER UNIVERSITY OF LOUISIANA, priority 2006, published 2008).
Like-named read-outs stand apart in the source and are kept apart here. Marks after values point to notes of the source that are not given here.

How the values were obtained:
[1] = tested on: poly(dA-dT); experiment: Thermal denaturation study, DNA binding affinity (ΔTm); conditions: 1:5 compound to base pair ratio;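 further: shift in the midpoint temperature of the thermal melting curve of poly(dA-dT), each value the mean of two or more independent determinations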
Procedure: (§1) The binding affinity was measured by determining the change in the midpoint (Tm) of the thermal denaturation curves of calf thymus DNA as well as poly(dA-dT) at a 1:5 compound to base pair ratio.

[2] = tested on: T. b. rhodesiense KETRI 243; experiment: In vitro trypanocidal activity, bloodforms in HMI-18 medium, Coulter counts; assay type: cell-based, Trypanosoma brucei rhodesiense; conditions: 48 h exposure
Procedure: (§2) The compounds were tested against trypanosome isolates grown as blood forms in HMI-18 medium containing 20% horse serum in 24 well microplates at 37° C. in 5% CO2. Wells were inoculated with 1×10^5 trypanosomes. […] One-half the volume was replaced daily. Cell counts were made daily with a Coulter Counter, Model Z1 (Beckman Coulter, Miami, Fla., USA). Cells were diluted with Isoton I buffer (Beckman Coulter) and the aperture was standardized at 5.14 μm. Background checks were performed daily on 1:10 dilutions of medium. Counts, normalization, and coincident counts were accounted for by the standardized Coulter analysis program. Occasionally, hemocytometer counts were performed as a check on the validity of the Coulter program. IC50 values were determined after 48 h from semi-log plots and the values are the result of duplicate determinations. Initially a broad concentration curve was used and then a close concentration curve from which IC50 values were determined. Assays were done in duplicate and each point was the average of the two. Control cells grew to 5×10^6/ml.
(§3) Coulter counts were made daily and IC50 values determined after 48 hours exposure.

[3] = tested on: calf thymus DNA; experiment: Thermal denaturation study, DNA binding affinity (ΔTm); conditions: 1:5 compound to base pair ratio;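 further: shift in midpoint melting temperature of calf thymus DNA thermal denaturation curves caused by compound binding, values averaged over at least two determinations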
Procedure: as §1

[4] = tested on: T. b. brucei Lab 110 EATRO; experiment: In vivo efficacy in infected mice; parameters: species or system Trypanosoma brucei brucei
Procedure: Female Swiss-Webster mice (weight, 20 g) were infected (intraperitoneally) with 2.5×10^5 trypanosomes from rat blood, and the infection was allowed to develop for 24 h before drug treatment was begun. Groups of three mice each were injected (intraperitoneally) with each drug concentration. All of the experiments included a group of untreated controls. […] Parasitemia of animals dying of infection averaged 0.5-1.0×10^9/mL of blood. These infections are very predictable and daily counts were not done because of the labor involved. […] Animals were monitored weekly for parasites in tail vein blood smears. Mice were considered cured if they survived more than 30 days after the death of the last control with no parasites in tail vein blood smears. MSD (mean survival in days) was also recorded for each group. It is the average time of survival of the animals in the group, exclusive of cured animals.
Mice were infected with 250,000 parasites and dosing commenced 24 h. post infection. Mice were separated into groups of three and given single i.p doses for 3 days unless otherwise noted. Infected untreated controls were used for each experiment. Mice were considered cured if surviving more than 30 days beyond death of controls without parasites in tail vein blood smears. MSD, mean survival in days, exclusive of cured animals.

[5] = tested on: T. b. brucei Lab 110 EATRO; experiment: In vitro trypanocidal activity, bloodforms in HMI-18 medium, Coulter counts; assay type: cell-based, Trypanosoma brucei brucei; conditions: read-out: Lab 100 EATRO IC50
Procedure: as §2, §3

[6] = tested on: T. b. rhodesiense KETRI 2002; experiment: In vivo efficacy in infected mice, clinical isolate; parameters: species or system Trypanosoma brucei rhodesiense
Procedure: (§4) Female Swiss-Webster mice (weight, 20 g) were infected (intraperitoneally) with 2.5×10^5 trypanosomes from rat blood, and the infection was allowed to develop for 24 h before drug treatment was begun. Groups of three mice each were injected (intraperitoneally) with each drug concentration. All of the experiments included a group of untreated controls. […] Animals were monitored weekly for parasites in tail vein blood smears. Mice were considered cured if they survived more than 30 days after the death of the last control with no parasites in tail vein blood smears. MSD (mean survival in days) was also recorded for each group. It is the average time of survival of the animals in the group, exclusive of cured animals.
(§5) Mice were infected on day 1 with 2.5×10^5 trypanosomes and the infections allowed to progress 24 h. prior to dosing. Animals were dosed 1×/day i.p for 3 days. Cured animals survived >30 days beyond the death of untreated, infected controls. MSD=mean survival in days exclusive of cured animals. Dose as mg/kg/day.

[7] = tested on: T. b. rhodesiense KETRI 1992; experiment: as above; parameters: species or system Trypanosoma brucei rhodesiense
Procedure: as §4, §5

[8] = mice, 1, 2.5, 5, 10, 15, 25 mg/kg/day i.p. for 3 days (all doses failed to cure)
[9] = mice, 1, 2.5, 5, 10, 15, 25 mg/kg/day i.p. for 3 days (all doses)
[10] = KETRI 2002, 1 mg/kg/day i.p. for 3 days
[11] = KETRI 2002, 5 mg/kg/day i.p. for 3 days
[12] = KETRI 2002, 10 mg/kg/day i.p. for 3 days
[13] = KETRI 2002, 15 mg/kg/day i.p. for 3 days
[14] = KETRI 2002, 25 mg/kg/day i.p. for 3 days
[15] = KETRI 1992, 1 mg/kg/day i.p. for 3 days
[16] = KETRI 1992, 5 mg/kg/day i.p. for 3 days
[17] = KETRI 1992, 10 mg/kg/day i.p. for 3 days
[18] = KETRI 1992, 25 mg/kg/day i.p. for 3 days
[19] = mice, 1 mg/kg/day i.p. for 3 days
[20] = mice, 5 mg/kg/day i.p. for 3 days
[21] = mice, 10 mg/kg/day i.p. for 3 days
[22] = mice, 25 mg/kg/day i.p. for 3 days
[23] = mice, 15 mg/kg/day i.p. for 3 days

Cc1nc(-c2ccc(NC(=O)CCCC(=O)Nc3ccc(-c4noc(C)n4)cc3)cc2)no1 [TH728, N,N′-Bis[4-(5-Methyl-1,2,4-oxadiazol-3yl)phenyl]pentanediamide]
melting point: 235 to 237 °C

CCCCCC(=O)ONC(=N)c1ccc(NC(=O)CCCC(=O)Nc2ccc(C(=N)NOC(=O)CCCCC)cc2)cc1 [TH742, N,N′-Bis[4-(N-Pentylcarbonyloxyamidino)phenyl]pentanediamide]
melting point: 182 to 184 °C

N=C(N)c1ccc(OCc2ccc(COc3ccc(C(=N)N)cc3)cc2)cc1 [compound 0508]
DNA Binding Δ Tm Poly (dA-dT) [1]: 18.0 °C
IC50 [2]: 0.665 nM
DNA Binding Δ Tm Calf thymus [3]: 12.5 °C
# Cured/#Treated (%) [4, 8]: 0/3^a
MSD [4, 9]: 5 to 17.3 days
IC50 ([5]; 48 h exposure, bloodforms): 0.295 nM

N=C(N)c1ccc(NC(=O)CCCCCCCCC(=O)Nc2ccc(C(=N)N)cc2)cc1 [compound 0709]
IC50 [2]: 4.1 nM
#Cured/Total [6, 10]: 0/3
MSD [6, 10]: 18 days
MSD [6, 11]: 33 days
MSD [6, 12]: >30 days
MSD [6, 13]: >30 days
MSD [6, 14]: >30 days
#Cured/Total [7, 15]: 0/3
MSD [7, 15]: 12.6 days
#Cured/Total [7, 16]: 0/3
MSD [7, 16]: 13.7 days
#Cured/Total [7, 17]: 0/3
MSD [7, 17]: 15.7 days
#Cured/Total [7, 18]: 0/3
MSD [7, 18]: 26.6 days
MSD [4, 19]: 12 days
MSD [4, 20]: >30 days
MSD [4, 21]: >30 days
MSD [4, 22]: >30 days
IC50 ([5]; 48 h exposure, bloodforms): 2 nM

N=C(N)c1ccc(OCc2ccccc2COc2ccc(C(=N)N)cc2)cc1 [compound 0513]
DNA Binding Δ Tm Poly (dA-dT) [1]: −0.1 °C
IC50 [2]: 2.55 nM
DNA Binding Δ Tm Calf thymus [3]: −0.2 °C
# Cured/#Treated (%) [4, 8]: 0/3^a
MSD [4, 9]: 5 days
IC50 ([5]; 48 h exposure, bloodforms): 1.25 nM

O=C(CCCC(=O)Nc1ccc(-c2noc(-c3ccccc3)n2)cc1)Nc1ccc(-c2noc(-c3ccccc3)n2)cc1 [TH747, N,N′-Bis[4-(5-Phenyl-1,2,4-oxadiazol-3yl)phenyl]pentanediamide]
melting point: 255 to 257 °C

N=C(N)c1ccc(COc2ccccc2OCc2ccc(C(=N)N)cc2)cc1 [compound 0519]
DNA Binding Δ Tm Poly (dA-dT) [1]: −0.1 °C
IC50 [2]: 2.1 nM
DNA Binding Δ Tm Calf thymus [3]: 0.1 °C
# Cured/#Treated (%) [4, 8]: 0/3^a
MSD [4, 9]: 5 days
IC50 ([5]; 48 h exposure, bloodforms): 1.3 nM

CCCCCc1nc(-c2ccc(NC(=O)CCCC(=O)Nc3ccc(-c4noc(CCCCC)n4)cc3)cc2)no1 [TH743, N,N′-Bis[4-(5-Pentyl-1,2,4-oxadiazol-3yl)phenyl]pentanediamide]
melting point: 171 to 173 °C

CCCCCCNC(=N)c1ccc(N2CCN(c3ccc(C(=N)NCCCCCC)cc3)CC2)cc1.Cl.Cl [compound 0128]
DNA Binding Δ Tm Poly (dA-dT) [1]: 10.1 °C
IC50 [2]: 23.9 nM
DNA Binding Δ Tm Calf thymus [3]: 10.7 °C
# Cured/#Treated (%) [4, 8]: 0/3^a
MSD [4, 9]: 5.3 to 10.6 days
IC50 ([5]; 48 h exposure, bloodforms): 13 nM

CCNC(=N)c1ccc(N2CCN(c3ccc(C(=N)NCC)cc3)CC2)cc1.Cl.Cl [compound 0140]
DNA Binding Δ Tm Poly (dA-dT) [1]: 18.6 °C
IC50 [2]: 33 nM
DNA Binding Δ Tm Calf thymus [3]: 15.3 °C
# Cured/#Treated (%) [4, 19]: 0/3
MSD [4, 19]: 5 days
MSD [4, 20]: 18 days
MSD [4, 21]: 17 days
IC50 ([5]; 48 h exposure, bloodforms): 13 nM

Cl.Cl.N=C(NC1CCCCCC1)c1ccc(N2CCN(c3ccc(C(=N)NC4CCCCCC4)cc3)CC2)cc1 [compound 0129]
DNA Binding Δ Tm Poly (dA-dT) [1]: 18.7 °C
IC50 [2]: 22 nM
DNA Binding Δ Tm Calf thymus [3]: 15.6 °C
# Cured/#Treated (%) [4, 19]: 0/3
MSD [4, 19]: 7.5 days
MSD [4, 20]: 9 days
MSD ([4]; mice, 7.5 mg/kg/day i.p. for 3 days): >30 days
MSD [4, 21]: >30 days
MSD [4, 23]: >30 days
IC50 ([5]; 48 h exposure, bloodforms): 18 nM

CC(=O)O/N=C(\N)c1ccc(NC(=O)CCCC(=O)Nc2ccc(/C(N)=N/OC(C)=O)cc2)cc1 [TH724, N,N′-bis[4-(N-acetoxyamidino)phenyl]pentanediamide]
melting point: 225 to 228 °C

N=C(N)c1ccc(NC(=O)CCCCCCC(=O)Nc2ccc(C(=N)N)cc2)cc1 [compound 0705]
IC50 [2]: 1.45 nM
MSD [6, 10]: >30 days
MSD [6, 11]: >30 days
MSD [6, 12]: >30 days
MSD [6, 14]: >30 days
#Cured/Total [7, 15]: 0/3
MSD [7, 15]: 15.3 days
#Cured/Total [7, 16]: 0/3
MSD [7, 16]: 22.6 days
#Cured/Total [7, 17]: 0/3
MSD [7, 17]: 29.6 days
MSD [4, 19]: 10 days
MSD [4, 20]: >30 days
MSD [4, 21]: >30 days
MSD [4, 22]: >30 days
IC50 ([5]; 48 h exposure, bloodforms): 2.8 nM

N=C(N)c1ccc(NC(=O)CCCCCC(=O)Nc2ccc(C(=N)N)cc2)cc1 [compound 0706]
IC50 [2]: 2.05 nM
MSD [6, 10]: >30 days
MSD [6, 11]: >30 days
MSD [6, 12]: >30 days
MSD [6, 13]: >30 days
#Cured/Total [7, 15]: 0/3
MSD [7, 15]: 14 days
#Cured/Total [7, 16]: 0/3
MSD [7, 16]: 18.3 days
#Cured/Total [7, 17]: 0/3
MSD [7, 17]: 18.6 days
#Cured/Total [7, 18]: 0/3
MSD [7, 18]: 19.3 days
MSD [4, 19]: >30 days
MSD [4, 20]: >30 days
MSD [4, 21]: >30 days
MSD [4, 23]: >30 days
IC50 ([5]; 48 h exposure, bloodforms): 1.62 nM

C=CCCc1nc(-c2ccc(NC(=O)CCCC(=O)Nc3ccc(-c4noc(CCC=C)n4)cc3)cc2)no1 [TH745, N,N′-Bis[4-(5-3,4-Butene-1,2,4-oxadiazol-3yl)phenyl]pentanediamide]
melting point: 168 to 170 °C

NNC(=O)c1ccc(N2CCN(c3ccc(C(=O)NN)cc3)CC2)cc1 [compound 0117, 4,4′-(1,4-Piperazinediyl)bisbenzenecarboxhydrazide]
melting point: > 300 °C
DNA Binding Δ Tm Poly (dA-dT) [1]: 0.0 °C
DNA Binding Δ Tm Calf thymus [3]: 0.1 °C
IC50 ([5]; Trypanosoma brucei, 48 h): 240 nM

CCCNC(=N)c1ccc(N2CCN(c3ccc(C(=N)NCCC)cc3)CC2)cc1.Cl.Cl [63N, N,N′-Dipropyl 4,4′-(1,4-piperazinediyl)bisbenzenecarboxidamide]
DNA Binding Δ Tm Poly (dA-dT) [1]: 26.0 °C
IC50 ([2]; Trypanosoma brucei, RHODESIENSE): 32.5 nM
DNA Binding Δ Tm Calf thymus [3]: 17.0 °C
IC50 ([5]; Trypanosoma brucei, 48 h exposure, bloodforms): 35 nM

CCC(C)CNC(=N)c1ccc(N2CCN(c3ccc(C(=N)NCC(C)CC)cc3)CC2)cc1.Cl.Cl (centres unmarked) [compound 0138]
DNA Binding Δ Tm Poly (dA-dT) [1]: 16.0 °C
IC50 [2]: 39 nM
DNA Binding Δ Tm Calf thymus [3]: 12.9 °C
IC50 ([5]; 48 h exposure, bloodforms): 13 nM

c1cc(N2CCN(c3ccc(C4OCCO4)cc3)CC2)ccc1C1OCCO1 [compound 0111]
DNA Binding Δ Tm Poly (dA-dT) [1]: 0.1 °C
IC50 [2]: 2300 nM
DNA Binding Δ Tm Calf thymus [3]: −1.2 °C
IC50 ([5]; 48 h exposure, bloodforms): 5800 nM

N/C(=N\OC(=O)c1ccccc1)c1ccc(NC(=O)CCCC(=O)Nc2ccc(/C(N)=N/OC(=O)c3ccccc3)cc2)cc1 [TH746, N,N′-Bis[4-(N-Phenylcarbonyloxyamidino)phenyl]pentanediamide]
melting point: 253 to 255 °C
